Results on 25 compounds are retold here after patent US12215093B2, “Bicyclic carboxamides and methods of use thereof” (Tempest Therapeutics, Inc., priority 2018, dated 2025).

SMILES strings stand for the structures.

One test addresses T1, EP4 (Homo sapiens, UniProt P35408).
T1 construct: host or cells: stably transfected HEK293 cells co-expressing a promiscuous G protein and a clytin variant
Description: Functional calcium flux assay, EP4. To be noted: stably transfected HEK293 cells; PGE2 10 nM; read-out: EP4 Ca2+-flux assay IC50. Type of test: cell-based. (Calcium assays in cells follow changes in intracellular calcium, usually with a dye or a luminescent sensor.)

For the next test, the target named is EP2 (Homo sapiens, UniProt P43116).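 Further: functional calcium flux assay in stably transfected HEK293 cells expressing EP2 coupled via a promiscuous G protein, clytin luminescence read as area under the curve, 30 min compound preincubation.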
EP2, sequence (P43116 whole entry): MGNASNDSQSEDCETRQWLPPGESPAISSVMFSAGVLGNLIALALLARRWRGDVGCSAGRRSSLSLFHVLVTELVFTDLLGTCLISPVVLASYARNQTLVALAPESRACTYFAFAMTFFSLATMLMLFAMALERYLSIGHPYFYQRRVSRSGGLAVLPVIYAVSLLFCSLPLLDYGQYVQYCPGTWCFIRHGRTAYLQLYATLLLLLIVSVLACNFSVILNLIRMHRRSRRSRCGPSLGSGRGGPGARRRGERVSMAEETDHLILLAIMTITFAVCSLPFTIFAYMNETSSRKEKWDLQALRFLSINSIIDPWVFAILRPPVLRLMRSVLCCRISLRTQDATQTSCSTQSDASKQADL

T1 sequence (P35408 whole entry): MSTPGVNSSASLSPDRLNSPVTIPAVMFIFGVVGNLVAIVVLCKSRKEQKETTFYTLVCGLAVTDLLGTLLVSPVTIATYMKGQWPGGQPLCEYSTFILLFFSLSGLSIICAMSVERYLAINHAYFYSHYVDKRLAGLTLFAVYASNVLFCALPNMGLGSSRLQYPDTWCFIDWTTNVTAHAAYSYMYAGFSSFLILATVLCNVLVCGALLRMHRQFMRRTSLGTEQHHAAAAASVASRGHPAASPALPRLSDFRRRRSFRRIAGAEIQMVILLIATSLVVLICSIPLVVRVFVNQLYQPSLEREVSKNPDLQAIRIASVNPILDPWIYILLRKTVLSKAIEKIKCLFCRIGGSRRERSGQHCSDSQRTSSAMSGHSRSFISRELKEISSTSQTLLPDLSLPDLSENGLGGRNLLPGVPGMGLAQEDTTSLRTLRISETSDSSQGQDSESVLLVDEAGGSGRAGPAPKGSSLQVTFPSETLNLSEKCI
Description for EP2: (§1) Each receptor subtype has an additional promiscuous G protein added in order to couple the aforementioned receptor to the calcium signaling pathway. The parental cell line used also expresses a novel variant of clytin, a calcium-activated photo-protein, to enable sensitive luminescent detection. Briefly, cells were plated at 50,000 cells-per-well in black, clear bottom 96-well plates. The plated cells were allowed to sit at room temperature for 30 min prior to transferring to a humidified, 37° C., 5% CO2 incubator for 18 to 24 h. Assay buffer (HBSS with 20 mM HEPES) and loading buffer (assay buffer plus 10 μM coelenterazine) were prepared on the day of the assay. Assays were performed by aspirating media from the assay plate and washing once with assay buffer, then replacing with loading buffer and allowing the cells to incubate for 1.5 h at room temperature. Compounds were prepared in assay buffer at a 3× final concentration in non-binding plates. Compounds were added to the cell plates and incubated for 30 min at room temperature. The prostanoid receptor ligand PGE2 was prepared at a 4× dilution ratio for a final concentration of 10 nM. Plates were run on a Flexstation™ using a 100 ms integration luminescence protocol for a total of 60 sec with ligand addition at 15 sec. Data were obtained from relative light units as measured by area under the curve.
Description for EP4: as §1

The IC50 is the concentration needed to halve the response being measured. Turning to `COc1cc(C#N)cc(-c2ccc(C(C)n3ncc4cccc(C(=O)NC5CC6(C5)CC(C(=O)O)C6)c43)cc2)c1` (single isomer, unassigned) [Example 126, (Sa)-6-(1-((R) or (S)-1-(3′-cyano-5′-methoxy-[1,1′-biphenyl]-4-yl)-ethyl)-1H-indazole-7-carboxamido)spiro[3.3]heptane-2-carboxylic acid], the IC50 on EP4 was less than 1 nM; against EP2, less than 25 nM.
For `CC(c1ccc(-c2ccccc2)cc1)n1ccc2c(F)ccc(C(=O)NC3CC4(C3)CC(C(=O)O)C4)c21` (single isomer, unassigned) [Example 127, (Sa)-6-(1-((R) or (S)-1-([1,1′-biphenyl]-4-yl)-ethyl)-4-fluoro-1H-indole-7-carboxamido)spiro[3.3]heptane-2-carboxylic acid] the same measures were 1.2 nM and less than 25 nM.
For `COc1cccc(-c2ccc(C(C)n3ccc4c(F)ccc(C(=O)NC5CC6(C5)CC(C(=O)O)C6)c43)cc2)c1` (single isomer, unassigned) [Example 128, (Sa)-6-(4-fluoro-1-((R) or (S)-1-(3′-methoxy-[1,1′-biphenyl]-4-yl)-ethyl)-1H-indole-7-carboxamido)spiro[3.3]heptane-2-carboxylic acid] the same measures were 1.9 nM and less than 25 nM.
For `CCOc1cc(-c2ccc(C(C)n3ccc4c(F)ccc(C(=O)NC5CC6(C5)CC(C(=O)O)C6)c43)cc2)ccn1` (single isomer, unassigned) [Example 129, (Sa)-6-(1-((R) or (S)-1-(4-(2-ethoxypyridin-4-yl)phenyl)-ethyl)-4-fluoro-1H-indole-7-carboxamido)spiro[3.3]heptane-2-carboxylic acid] the same measures were 3 nM and 61 nM.
Take `CCOc1cc(-c2ccc(C(C)n3ncc4c(Cl)ccc(C(=O)NC5CC6(C5)CC(C(=O)O)C6)c43)cc2)ccn1` (single isomer, unassigned) [Example 131, (Sa)-6-(4-chloro-1-((R) or (S)-1-(4-(2-ethoxypyridin-4-yl)phenyl)-ethyl)-1H-indazole-7-carboxamido)spiro[3.3]heptane-2-carboxylic acid]: the IC50 is less than 1 nM on EP4 and less than 25 nM at EP2.
With `CC(c1ccc(N2C[C@H]3C[C@H]3C2)cc1)n1ncc2c(Cl)ccc(C(=O)NC3CC4(C3)CC(C(=O)O)C4)c21` (single isomer, unassigned) [Example 132, (Sa)-6-(1-((R) or (S)-1-(4-((1R, 5S)-3-azabicyclo[3.1.0]hexan-3-yl)phenyl)ethyl)-4-chloro-1H-indazole-7-carboxamido)spiro[3.3]heptane-2-carboxylic acid], the IC50 on EP4 was 2.2 nM; on EP2, less than 25 nM.
For `CN(C)c1cc(-c2ccc(Cn3ccc4c(F)ccc(C(=O)NC5CC6(C5)CC(C(=O)O)C6)c43)cc2)ccn1` (centres unmarked) [Example 22, 6-(1-(4-(2-(dimethylamino)pyridin-4-yl)benzyl)-4-fluoro-1H-indole-7-carboxamido)spiro[3.3]heptane-2-carboxylic acid] the same measures were less than 1 nM and 78 nM.
For `O=C(NC1CC2(C1)CC(C(=O)O)C2)c1ccc(F)c2ccn(Cc3ccc4cc(F)ccc4c3)c12` (centres unmarked) [Example 37, (Sa)-6-(4-fluoro-1-((6-fluoronaphthalen-2-yl)methyl)-1H-indole-7-carboxamido)spiro[3.3]heptane-2-carboxylic acid], the figures for the IC50 on EP4 and against EP2 were less than 1 nM and 70 nM, respectively.
As for `COc1ccc2cc(Cn3ccc4c(F)ccc(C(=O)NC5CC6(C5)CC(C(=O)O)C6)c43)ccc2c1` (centres unmarked) [Example 38, (Sa)-6-(4-fluoro-1-((6-methoxynaphthalen-2-yl)methyl)-1H-indole-7-carboxamido)spiro[3.3]heptane-2-carboxylic acid], the IC50 is less than 1 nM at EP4 and less than 25 nM on EP2.
For `COc1ccc2ccc(Cn3ccc4c(F)ccc(C(=O)NC5CC6(C5)CC(C(=O)O)C6)c43)cc2c1` (centres unmarked) [Example 40, (Sa)-6-(4-fluoro-1-((7-methoxynaphthalen-2-yl)methyl)-1H-indole-7-carboxamido)spiro[3.3]heptane-2-carboxylic acid] the same measures were less than 1 nM and less than 25 nM.
For `O=C(NC1CC2(C1)CC(C(=O)O)C2)c1ccc(F)c2ccn(Cc3ccc4cc(Br)ccc4c3)c12` (centres unmarked) [Example 42, (Sa)-6-(1-((6-bromonaphthalen-2-yl)methyl)-4-fluoro-1H-indole-7-carboxamido)spiro[3.3]heptane-2-carboxylic acid] the same measures were less than 1 nM and 37 nM.
For `O=C(NC1CC2(C1)CC(C(=O)O)C2)c1ccc(F)c2ccn(Cc3ccc4c(Br)cccc4c3)c12` (centres unmarked) [Example 43], the IC50 was less than 1 nM at EP4 and less than 25 nM on EP2.
For `O=C(NC1CC2(C1)CC(C(=O)O)C2)c1ccc(F)c2ccn(Cc3ccc4ccc(Br)cc4c3)c12` (centres unmarked) [Example 44, (Sa)-6-(1-((7-bromonaphthalen-2-yl)methyl)-4-fluoro-1H-indole-7-carboxamido)spiro[3.3]heptane-2-carboxylic acid] the same measures were less than 1 nM and 30 nM.
For `COc1cc(-c2ccc(Cn3ccc4c(F)ccc(C(=O)NC5CC6(C5)CC(C(=O)O)C6)c43)cc2)ccc1F` (centres unmarked) [Example 46, (Sa)-6-(4-fluoro-1-((4’-fluoro-3’-methoxy-[1,1′-biphenyl]-4-yl)methyl)-1H-indole-7-carboxamido)spiro[3.3]heptane-2-carboxylic acid] the same measures were less than 1 nM and 88 nM.
In the case of `COc1ccc(-c2ccc(Cn3ccc4c(F)ccc(C(=O)NC5CC6(C5)CC(C(=O)O)C6)c43)cc2)cc1F` (centres unmarked) [Example 47, (Sa)-6-(4-fluoro-1-((3’-fluoro-4’-methoxy-[1,1′-biphenyl]-4-yl)methyl)-1H-indole-7-carboxamido)spiro[3.3]heptane-2-carboxylic acid], the figures for the IC50 at EP4 and against EP2 were less than 1 nM and 79 nM, respectively.
For `CCOc1cc(-c2ccc(Cn3ccc4c(F)ccc(C(=O)NC5CC6(C5)CC(C(=O)O)C6)c43)cc2)ccn1` (centres unmarked) [Example 48, (Sa)-6-(1-(4-(2-ethoxypyridin-4-yl)benzyl)-4-fluoro-1H-indole-7-carboxamido)spiro[3.3]heptane-2-carboxylic acid] the same measures were less than 1 nM and 27 nM.
For `COc1cc(C#N)cc(-c2ccc(Cn3ccc4c(F)ccc(C(=O)NC5CC6(C5)CC(C(=O)O)C6)c43)cc2)c1` (centres unmarked) [Example 49, (Sa)-6-(1-((3’-cyano-5’-methoxy-[1,1′-biphenyl]-4-yl)methyl)-4-fluoro-1H-indole-7-carboxamido)spiro[3.3]heptane-2-carboxylic acid] the same measures were less than 1 nM and less than 25 nM.
As to `O=C(NC1CC2(C1)CC(C(=O)O)C2)c1ccc(F)c2ccn(Cc3ccc(-c4cccc(OC(F)F)c4)cc3)c12` (centres unmarked) [Example 50, (Sa)-6-(1-((3’-(difluoromethoxy)-[1,1′-biphenyl]-4-yl)methyl)-4-f1uoro-1H-indole-7-carboxamido)spiro[3.3]heptane-2-carboxylic acid], the IC50 on EP4 is less than 1 nM; against EP2, 67 nM.
For `COc1ccc(-c2ccc(Cn3ccc4c(F)ccc(C(=O)NC5CC6(C5)CC(C(=O)O)C6)c43)cc2)cc1` (centres unmarked) [Example 51, (Sa)-6-(4-fluoro-1-((4’-methoxy-[1,1′-biphenyl]-4-yl)methyl)-1H-indole-7-carboxamido)spiro[3.3]heptane-2-carboxylic acid] the same measures were less than 1 nM and less than 25 nM.
With `COc1cc(F)cc(-c2ccc(Cn3ccc4c(F)ccc(C(=O)NC5CC6(C5)CC(C(=O)O)C6)c43)cc2)c1` (centres unmarked) [Example 53, (Sa)-6-(4-fluoro-1-((3’-fluoro-5’-methoxy-[1,1′-biphenyl]-4-yl)methyl)-1H-indole-7-carboxamido)spiro[3.3]heptane-2-carboxylic acid], the results for the IC50 at EP4 and at EP2 were less than 1 nM and less than 25 nM, respectively.
For `N#Cc1cccc(-c2ccc(Cn3ccc4c(F)ccc(C(=O)NC5CC6(C5)CC(C(=O)O)C6)c43)cc2)c1` (centres unmarked) [Example 55, (Sa)-6-(1-((3’-cyano-[1,1′-biphenyl]-4-yl)methyl)-4-fluoro-1H-indole-7-carboxamido)spiro[3.3]heptane-2-carboxylic acid] the same measures were less than 1 nM and 46 nM.
For `O=C(NC1CC2(C1)CC(C(=O)O)C2)c1ccc(F)c2ccn(Cc3ccc(-c4cccc(OC5COC5)c4)cc3)c12` (centres unmarked) [Example 57, (Sa)-6-(4-fluoro-1-((3′-(oxetane-3-yloxy)-[1,1′-biphenyl]-4-yl)methyl)-1H-indole-7-carboxamido)spiro[3.3]heptane-2-carboxylic acid] the same measures were less than 1 nM and 99 nM.
For `CCOc1nccc(-c2ccc(Cn3ccc4c(F)ccc(C(=O)NC5CC6(C5)CC(C(=O)O)C6)c43)cc2)n1` (centres unmarked) [Example 58, (Sa)-6-(1-(4-(2-ethoxypyrimidin-4-yl)benzyl)-4-fluoro-1H-indole-7-carboxamido)spiro[3.3]heptane-2-carboxylic acid] the same measures were 2.4 nM and 95 nM.
Regarding `COc1cc(C#N)cc(-c2ccc(Cn3ccc4c(F)ccc(C(=O)NC5CC6(C5)CC(C(=O)O)C6)c43)cc2)n1` (centres unmarked) [Example 59, (Sa)-6-(1-(4-(4-cyano-6-methoxypyridin-2-yl)benzyl)-4-fluoro-1H-indole-7-carboxamido)spiro[3.3]heptane-2-carboxylic acid], the IC50 came out at 2.5 nM on EP4 and 51 nM against EP2.
For `CNC(=O)c1cc(-c2ccc(Cn3ccc4c(F)ccc(C(=O)NC5CC6(C5)CC(C(=O)O)C6)c43)cc2)ccn1` (centres unmarked) [Example 60, (Sa)-6-(4-fluoro-1-(4-(2-(methylcarbamoyl)pyridin-4-yl)benzyl)-1H-indole-7-carboxamido)spiro[3.3]heptane-2-carboxylic acid] the same measures were less than 1 nM and 40 nM.
